The target of one test is T1, hCA IX (Homo sapiens, UniProt Q16790).
T1 construct: gene CA9; recombinant, obtained in-house; tumour-associated isoform
Description: stopped-flow CO2 hydrase assay. The format is biochemical. An excerpt: stopped-flow CO2 hydrase assay on hCA IX

For the next test, the target named is T2, hCA VII (Homo sapiens, UniProt P43166).
T2 construct: gene CA7; recombinant, obtained in-house; cytosolic isoform
In words: stopped-flow CO2 hydrase assay. It counts as biochemical. The settings on record: read-out: hCA I. From the text: stopped-flow CO2 hydrase assay on hCA VII

The next test has as its target T3, hCA II (Homo sapiens, UniProt P00918).
T3 construct: gene CA2; recombinant, obtained in-house; cytosolic isoform
In words: stopped-flow CO2 hydrase assay. Particulars: read-out: hCA I. It counts as biochemical. An excerpt: stopped-flow CO2 hydrase assay on hCA II

The target in the next test is T4, hCA XII (Homo sapiens, UniProt O43570).
T4 construct: gene CA12; recombinant, obtained in-house; tumour-associated isoform
T4 sequence (O43570 25-354 limits assumed): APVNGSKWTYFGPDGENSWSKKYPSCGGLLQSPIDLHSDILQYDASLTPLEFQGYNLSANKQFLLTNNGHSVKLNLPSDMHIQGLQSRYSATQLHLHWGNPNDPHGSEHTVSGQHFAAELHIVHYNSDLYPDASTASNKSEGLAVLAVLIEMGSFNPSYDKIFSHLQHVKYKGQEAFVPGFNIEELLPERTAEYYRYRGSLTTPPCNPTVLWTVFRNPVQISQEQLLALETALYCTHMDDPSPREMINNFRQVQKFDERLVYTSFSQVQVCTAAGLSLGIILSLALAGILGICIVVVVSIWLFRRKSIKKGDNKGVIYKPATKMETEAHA
Description: stopped-flow CO2 hydrase assay. It counts as biochemical. The settings on record: […] HEPES pH […] Na2SO4, CO2 substrate; […] h preincubation. An excerpt: (§1) stopped-flow CO2 hydrase assay on hCA XII

In another test the target is T5, hCA I (Homo sapiens, UniProt P00915).
T5 construct: gene CA1; recombinant, obtained in-house; cytosolic isoform
T5 sequence (P00915 2-261): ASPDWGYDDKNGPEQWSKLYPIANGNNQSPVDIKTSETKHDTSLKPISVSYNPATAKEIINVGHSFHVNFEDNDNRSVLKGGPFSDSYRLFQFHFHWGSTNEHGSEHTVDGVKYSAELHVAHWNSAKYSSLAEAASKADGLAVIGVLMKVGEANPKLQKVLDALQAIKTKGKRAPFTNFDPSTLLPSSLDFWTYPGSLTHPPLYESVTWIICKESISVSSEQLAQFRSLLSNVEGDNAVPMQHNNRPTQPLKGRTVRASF
In words: stopped-flow CO2 hydrase assay. It counts as biochemical. An excerpt: stopped-flow CO2 hydrase assay on hCA I

The nature of test [1]: stopped-flow CO2 hydrase assay. It counts as biochemical, Homo sapiens. Particulars: read-out: hCA I.
From the text: as §1

[2] abbreviates: […] HEPES pH […] Na2SO4, CO2 substrate, […] h preincubation.

Each structure is given as a SMILES string. Where two headings read alike, the source gives them in different places.

T2 sequence (P43166 whole entry, canonical isoform): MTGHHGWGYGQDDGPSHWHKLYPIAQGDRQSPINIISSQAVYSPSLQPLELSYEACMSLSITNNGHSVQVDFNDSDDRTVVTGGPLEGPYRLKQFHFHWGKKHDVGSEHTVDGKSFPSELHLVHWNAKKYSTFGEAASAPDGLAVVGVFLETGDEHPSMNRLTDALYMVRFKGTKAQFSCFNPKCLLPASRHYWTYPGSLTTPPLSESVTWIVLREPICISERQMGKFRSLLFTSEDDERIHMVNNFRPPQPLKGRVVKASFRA

`NS(=O)(=O)Nc1cccc(S(=O)(=O)N2CCCC(C(=O)N3CCN(C(c4ccc(F)cc4)c4ccc(F)cc4)CC3)C2)c1` (centres unmarked) [compound 6, fluorinated benzhydryl piperazine derivative with nipecotic acid spacer (meta benzenesulfonamide)] gave a Ki on hCA IX of 296 nM.

Take `O=C(Cc1ccccc1Nc1c(Cl)cccc1Cl)NCCOc1ccc2ccc(=O)oc2c1` [compound 3, 7-substituted coumarin containing diclofenac]: the Ki at hCA IX (setting [2]) is 89.7 nM; at hCA VII, greater than 10000 nM; on hCA II, greater than 10000 nM; at hCA XII it was 80.9 nM; at hCA I, greater than 10000 nM.

On hCA IX, `NS(=O)(=O)Nc1ccc(S(=O)(=O)N2CCCC(C(=O)N3CCN(C(c4ccc(F)cc4)c4ccc(F)cc4)CC3)C2)cc1` (centres unmarked) [compound 9, fluorinated benzhydryl analogue of 8 (para)] displayed a Ki of 902 nM.

Take `O=C(Cc1ccccc1Nc1c(Cl)cccc1Cl)NCCOc1ccc2oc(=O)ccc2c1` [compound 1, 6-substituted coumarin containing diclofenac]: the Ki was 28.9 nM on hCA IX (setting [2]); greater than 10000 nM on hCA VII; greater than 10000 nM at hCA II; 92.6 nM on hCA XII; greater than 10000 nM at hCA I.

Consider `CC(C(=O)NCCOc1ccc2oc(=O)ccc2c1)c1ccc(-c2ccccc2)c(F)c1` (centres unmarked) [compound 2, 6-substituted coumarin containing flurbiprofen], for which the Ki on hCA IX (setting [2]) is 23.5 nM; at hCA VII, greater than 10000 nM; at hCA I it was greater than 10000 nM.

As to `NS(=O)(=O)Nc1ccc(S(=O)(=O)N2CCCC(C(=O)N3CCN(C(c4ccccc4)c4ccccc4)CC3)C2)cc1` (centres unmarked) [compound 8, benzhydryl piperazine derivative with nipecotic acid spacer (para)], the Ki on hCA IX came to 1410 nM.

At hCA IX, `NS(=O)(=O)Nc1cccc(S(=O)(=O)NCCC(=O)N2CCN(C(c3ccccc3)c3ccccc3)CC2)c1` [compound 5, benzhydryl piperazine derivative with beta-alanine spacer (meta benzenesulfonamide)] returned a Ki of 1020 nM.

In turn, `NS(=O)(=O)Nc1ccccc1S(=O)(=O)N1CCCC(C(=O)N2CCN(C(c3ccccc3)c3ccccc3)CC2)C1` (centres unmarked) [compound 7, benzhydryl piperazine derivative with nipecotic acid spacer (ortho)] came in with a Ki at hCA IX greater than 10000 nM.

Take `CC(C(=O)NCCOc1ccc2ccc(=O)oc2c1)c1ccc(-c2ccccc2)c(F)c1` (centres unmarked) [compound 4, 7-substituted coumarin containing flurbiprofen]: the Ki at hCA IX is 159 nM; at hCA VII it was greater than 10000 nM; at hCA II it was greater than 10000 nM; in test [1], greater than 10000 nM; on hCA I, greater than 10000 nM.

For the origin of these results see paper PMC7534274 (Journal of Enzyme Inhibition and Medicinal Chemistry, 2020).
